According to patent US8946238B2, “Pyrazolo[1,5-A]pyrimidines as antiviral agents” (Gilead Sciences, Inc., priority 2011, dated 2015):

Tested on: RSV strain A2
Assay: RSV antiviral cytoprotection assay in Hep2 cells (RSV-induced cytopathic effect, Cell TiterGlo)
Format: cell-based, Respiratory Syncytial Virus (RSV)
Settings: human respiratory syncytial virus, HEp-2, 0.5 μM compound; RSV A2-infected Hep2 cells; % inhibition calculated from 4-parameter dose response curve, normalized to 0% and 100%; read-out: Percent inhibition at 0.5 μM
Protocol: Antiviral activity against RSV was determined using an in vitro cytoprotection assay in Hep2 cells. […] The method used was similar to methods previously described in published literature (Chapman et al., Antimicrob Agents Chemother. 2007, 51(9):3346-53.)
Hep2 cells were obtained from ATCC (Manassas, VI) and maintained in MEM media supplemented with 10% fetal bovine serum and penicillin/streptomycin. Cells were passaged twice a week and kept at subconfluent stage. Commercial stock of RSV strain A2 (Advanced Biotechnologies, Columbia, Md.) was titered before compound testing to determine the appropriate dilution of the virus stock that generated desirable cytopathic effect in Hep2 cells.
For antiviral tests, Hep2 cells were seeded into 96-well plates 24 hours before the assay at a density of 3,000 cells/well. On a separate 96 well plate, compounds to be tested were serially diluted in cell culture media. Eight concentrations in 3-fold serial dilution increments were prepared for each tested compound and 100 uL/well of each dilution was transferred in duplicate onto plates with seeded Hep2 cells. Subsequently, appropriate dilution of virus stock previously determined by titration was prepared in cell culture media and 100 uL/well was added to test plates containing cells and serially diluted compounds. Each plate included three wells of infected untreated cells and three wells of uninfected cells that served as 0% and 100% virus inhibition control, respectively. Following the infection with RSV, testing plates were incubated for 4 days in a tissue culture incubator. After the incubation, RSV-induced cytopathic effect was determined using a Cell TiterGlo reagent (Promega, Madison, Wis.) followed by a luminescence read-out. The percentage inhibition was calculated for each tested concentration relative to the 0% and 100% inhibition controls and the EC50 value for each compound was determined by non-linear regression as a concentration inhibiting the RSV-induced cytopathic effect by 50%. Ribavirin (purchased from Sigma, St. Louis, Mo.) was used as a positive control for antiviral activity.
Compounds were also tested for antiviral activity against RSV in Hep2 cells using a 384 well format. Compounds were diluted in DMSO using a 10-step serial dilution in 3-fold increments via automation in 4 adjacent replicates each. Eight compounds were tested per dilution plate. 0.4 uL of diluted compounds were then stamped via Biomek into 384-well plates (Nunc 142761 or 164730 w/lid 264616) containing 20 μL of media (Mediatech Inc. MEM supplemented with Glutamine, 10% FBS and Pen/Strep). DMSO and a suitable positive control compound, such as 80 μM GS-329467 or 10 μM 427346 was used for the 100% and 0% cell killing controls, respectively.
Hep2 cells (1.0×10^5 cells/ml) were prepared as above in batch to at least 40 mls excess of the number of sample plates (8 mls cell mix per plate) and infected with vendor supplied (ABI) RSV strain A2 to arrive at an MOI of 1:1000 (virus:cell #) or 1:3000 (vol virus: cell vol). Immediately after addition of virus, the RSV infected Hep2 cell suspension was added to each stamped 384-well plate at 20 μl per well using a uFlow dispenser, giving a final volume of 40 μL/well, each with 2000 infected cells. The plates were then incubated for 5 days at 37° C. and 5% CO2. Following incubation, the plates were equilibrated to room temperature in a biosafety cabinet hood for 1.5 hrs and 40 μL of Cell-Titer Glo viability reagent (Promega) was added to each well via uFlow. Following a10-20 minute incubation, the plates were read using an EnVision or Victor Luminescence plate reader (Perkin-Elmer). The data was then uploaded and analyzed on the Bioinformatics portal under the RSV Cell Infectivity and 8-plate EC50-Hep2-384 or 8-plate EC50-Hep2-Envision protocols. […]

Cc1cn2nc([C@@H]3CCCCN3C(=O)c3c(Cl)nc4ccccn34)cc2nc1N1C[C@@H](C#N)[C@@H](O)C1 [Compound 136]
inhibition at 0.5 µM: 83%

COc1cc2ccccc2cc1C(=O)N1CCCC[C@H]1c1cc2nc(N3C[C@@H](C#N)[C@@H](O)C3)c(C)cn2n1 [Compound 174]
inhibition at 0.5 µM: 58%

Cc1cn2nc([C@@H]3CCCCN3C(=O)c3cccc(F)c3C(F)(F)F)cc2nc1N1CC[C@H](N)C1 [Compound 44]
inhibition at 0.5 µM: 100%

Cc1cn2nc([C@@H]3CCCCN3C(=O)c3cccc4c3CCCN4)cc2nc1N1C[C@@H](C#N)[C@@H](O)C1 [Compound 139]
inhibition at 0.5 µM: 100%

COc1cccc(C(=O)N2CCCC[C@H]2c2cc3nc(N4CC[C@H](N)C4)c(C)cn3n2)c1C [Compound 84]
inhibition at 0.5 µM: 100%

Cc1cn2nc([C@@H]3CCCCN3C(=O)c3ccc(Cl)cn3)cc2nc1N1CC[C@H](N)C1 [Compound 93]
inhibition at 0.5 µM: 44%

Cc1cc(F)ccc1C(=O)N1CCCC[C@H]1c1cc2nc(N3CC[C@H](N)C3)c(C)cn2n1 [Compound 77]
inhibition at 0.5 µM: 100%

CCS(=O)(=O)c1ccc(F)c(C(=O)N2CCCC[C@H]2c2cc3nc(N4CC[C@H](N)C4)c(C)cn3n2)c1 [Compound 67]
inhibition at 0.5 µM: 21%

Cc1cn2nc([C@@H]3CCCCN3C(=O)c3c(F)ccc(C)c3F)cc2nc1N1CC[C@H](N)C1 [Compound 39]
inhibition at 0.5 µM: 100%

Cc1cn2nc([C@@H]3CCCCN3C(=O)c3cc4c(OC(F)F)cccc4[nH]3)cc2nc1N1CC[C@H](N)C1 [Compound 57]
inhibition at 0.5 µM: 13%

Cc1cn2nc([C@@H]3CCCCN3C(=O)c3cccc(F)c3C)cc2nc1N1CC[C@H](N)C1 [Compound 25]
inhibition at 0.5 µM: 100%

Cc1cc(F)c(F)cc1C(=O)N1CCCC[C@H]1c1cc2nc(N3CC[C@H](N)C3)c(C)cn2n1 [Compound 75]
inhibition at 0.5 µM: 100%

Cc1cn2nc([C@@H]3CCCCN3C(=O)c3cc(Cl)ccc3NS(C)(=O)=O)cc2nc1N1C[C@@H](C#N)[C@@H](OC(=O)CCC(=O)NCCN2CCOCC2)C1 [Compound 209]
inhibition at 0.5 µM: 100%

Cc1cn2nc([C@@H]3CCCCN3C(=O)c3cccc(F)n3)cc2nc1N1C[C@@H](C#N)[C@@H](O)C1 [Compound 160]
inhibition at 0.5 µM: 71%

Cc1cn2nc([C@@H]3CCCCN3C(=O)c3c(F)cccc3Cl)cc2nc1N1CC[C@H](N)C1 [Compound 82]
inhibition at 0.5 µM: 100%

Cc1ccc(Cl)c(C(=O)N2CCCC[C@H]2c2cc3nc(N4C[C@@H](C#N)[C@@H](O)C4)c(C)cn3n2)c1 [Compound 170]
inhibition at 0.5 µM: 100%

Cc1cn2nc([C@@H]3CCCCN3C(=O)c3cc(Cl)ccc3NS(C)(=O)=O)cc2nc1N[C@H]1C[C@H]2C[C@@H]1CN2 [Compound 21]
inhibition at 0.5 µM: 58%

Cc1cn2nc([C@@H]3CCCCN3C(=O)c3cccc(C)c3C)cc2nc1N1C[C@@H](C#N)[C@@H](O)C1 [Compound 169]
inhibition at 0.5 µM: 100%

Cc1cn2nc([C@@H]3CCCCN3C(=O)c3ccsc3)cc2nc1N1C[C@@H](C#N)[C@@H](O)C1 [Compound 181]
inhibition at 0.5 µM: 83%

Cc1noc(-c2ccccc2C(=O)N2CCCC[C@H]2c2cc3nc(N4C[C@@H](C#N)[C@@H](O)C4)c(C)cn3n2)n1 [Compound 129]
inhibition at 0.5 µM: 87%

Cc1cn2nc([C@@H]3CCCCN3C(=O)c3ccc(F)cc3F)cc2nc1N1CC[C@H](N)C1 [Compound 73]
inhibition at 0.5 µM: 99%

Cc1cccnc1C(=O)N1CCCC[C@H]1c1cc2nc(N3C[C@@H](C#N)[C@@H](O)C3)c(C)cn2n1 [Compound 159]
inhibition at 0.5 µM: 91%

Cc1cn2nc([C@@H]3CCCCN3C(=O)c3cccc(F)c3Cl)cc2nc1N1C[C@@H](C#N)[C@@H](O)C1 [Compound 116]
inhibition at 0.5 µM: 100%

Cc1cn2nc([C@@H]3CCCCN3C(=O)c3cc(F)ccc3Cl)cc2nc1N1C[C@@H](C#N)[C@@H](O)C1 [Compound 186]
inhibition at 0.5 µM: 100%

COc1cc(C)ccc1C(=O)N1CCCC[C@H]1c1cc2nc(N3C[C@@H](C#N)[C@@H](O)C3)c(C)cn2n1 [Compound 173]
inhibition at 0.5 µM: 98%

Cc1cn2nc([C@@H]3CCCCN3C(=O)c3cc(Cl)ccc3NS(C)(=O)=O)cc2nc1N1C[C@@H](C#N)[C@@H](OC(=O)c2cccnc2)C1 [Compound 208]
inhibition at 0.5 µM: 100%

Cc1cn2nc([C@@H]3CCCCN3C(=O)c3ccc(C#N)cc3F)cc2nc1N1CC[C@H](N)C1 [Compound 32]
inhibition at 0.5 µM: 79%

Cc1cn2nc([C@@H]3CCCCN3C(=O)c3cc(F)cc4c3OCOC4)cc2nc1N1C[C@@H](C#N)[C@@H](O)C1 [Compound 130]
inhibition at 0.5 µM: 100%

Cc1cn2nc([C@@H]3CCCCN3C(=O)c3cc(Br)ccc3NS(C)(=O)=O)cc2nc1N1C[C@@H](C#N)[C@@H](O)C1 [Compound 199]
inhibition at 0.5 µM: 100%

Cc1cn2nc([C@@H]3CCCCN3C(=O)c3ccc(C)c(F)c3F)cc2nc1N1CC[C@H](N)C1 [Compound 33]
inhibition at 0.5 µM: 99%

Cc1cn2nc([C@@H]3CCCCN3C(=O)c3cc(Cl)ccc3NS(C)(=O)=O)cc2nc1N1CC(C)NC(C)C1 (stereo partly drawn) [Compound 20]
inhibition at 0.5 µM: 63%

Cc1cn2nc([C@@H]3CCCCN3C(=O)c3cc(Cl)ccc3NS(C)(=O)=O)cc2nc1N1C[C@@H]2CCN[C@@H]2C1 [Compound 16]
inhibition at 0.5 µM: 71%

Cc1cn2nc([C@@H]3CCCCN3C(=O)c3cccc4n[nH]cc34)cc2nc1N1CC[C@H](N)C1 [Compound 108]
inhibition at 0.5 µM: 99%

Cc1cn2nc([C@@H]3CCCCN3C(=O)c3ccccc3S(N)(=O)=O)cc2nc1N1CC[C@H](N)C1 [Compound 45]
inhibition at 0.5 µM: 45%

Cc1cn2nc([C@@H]3CCCCN3C(=O)c3cccc(F)n3)cc2nc1N1CC[C@H](N)C1 [Compound 81]
inhibition at 0.5 µM: 96%

Cc1cn2nc([C@@H]3CCCCN3C(=O)c3cc(Cl)ccc3NS(C)(=O)=O)cc2nc1N1C[C@H](C)NC[C@H]1C [Compound 24]
inhibition at 0.5 µM: 30%

Cc1cn2nc([C@@H]3CCCCN3C(=O)c3[nH]c4c(C)ccc(C)c4c3C)cc2nc1N1C[C@@H](C#N)[C@@H](O)C1 [Compound 134]
inhibition at 0.5 µM: 35%

CN[C@H]1CCN(c2nc3cc([C@@H]4CCCCN4C(=O)c4cc(Cl)ccc4NS(C)(=O)=O)nn3cc2C)C1 [Compound 11]
inhibition at 0.5 µM: 92%

Cc1cn2nc([C@@H]3CCCCN3C(=O)c3cc(Cl)ccc3NS(C)(=O)=O)cc2nc1N1C[C@H](N)C[C@@H]1C(=O)O [Compound 14]
inhibition at 0.5 µM: 81%

Cc1cn2nc([C@@H]3CCCCN3C(=O)c3ccc4ccccc4n3)cc2nc1N1CC[C@H](N)C1 [Compound 96]
inhibition at 0.5 µM: 65%

Cc1ccc(Cl)c(C(=O)N2CCCC[C@H]2c2cc3nc(N4CC[C@H](N)C4)c(C)cn3n2)c1 [Compound 89]
inhibition at 0.5 µM: 100%

Cc1cn2nc([C@@H]3CCCCN3C(=O)c3cc(F)ccc3C(F)(F)F)cc2nc1N1CC[C@H](N)C1 [Compound 109]
inhibition at 0.5 µM: 100%

Cc1cn2nc([C@@H]3CCCCN3C(=O)c3cccc4ccnn34)cc2nc1N1CC[C@H](N)C1 [Compound 54]
inhibition at 0.5 µM: 100%

Cc1ccnc(C(=O)N2CCCC[C@H]2c2cc3nc(N4CC(C#N)[C@@H](O)C4)c(C)cn3n2)c1 (stereo partly drawn) [Compound 196]
inhibition at 0.5 µM: 96%

Cc1cn2nc([C@@H]3CCCCN3C(=O)c3cc(Cl)ccc3NS(C)(=O)=O)cc2nc1N1C[C@@H](N)[C@H](c2ccccc2)C1 [Compound 4]
inhibition at 0.5 µM: 100%

Cc1cn2nc([C@@H]3CCCCN3C(=O)c3ccc(C#N)cc3F)cc2nc1N1C[C@@H](C#N)[C@@H](O)C1 [Compound 117]
inhibition at 0.5 µM: 46%

Cc1cn2nc([C@@H]3CCCCN3C(=O)c3ccccc3[S+](C)[O-])cc2nc1N1CC[C@H](N)C1 (stereo partly drawn) [Compound 103]
inhibition at 0.5 µM: 100%

COc1cc2ccccc2cc1C(=O)N1CCCC[C@H]1c1cc2nc(N3CC[C@H](N)C3)c(C)cn2n1 [Compound 94]
inhibition at 0.5 µM: 88%
